Measured values: publication PMC9203275, “Lysosome lipid signalling from the periphery to neurons regulates longevity” (Nature Cell Biology, 2022)
pKd: −log10 of the molar value.

Legend:
LBP-2 = target: T1, LBP-2 (Caenorhabditis elegans, UniProt Q20224); experiment: mass spectrometry of fatty acids bound after incubation with C. elegans lipid extract; format: binding; details: competition within C. elegans lipid extract
T1 sequence (Q20224 19-161): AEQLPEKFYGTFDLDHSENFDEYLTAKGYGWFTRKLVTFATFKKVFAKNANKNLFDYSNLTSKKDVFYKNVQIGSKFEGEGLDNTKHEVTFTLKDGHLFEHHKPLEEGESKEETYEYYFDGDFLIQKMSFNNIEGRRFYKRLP

LBP-3 = target: T2, LBP-3 (Caenorhabditis elegans, UniProt Q20222); experiment: competitive fluorescence displacement of […],8-ANS; format: binding; details: one-site Fit Ki; competition with 1,8-ANS probe
T2 sequence (Q20222 16-165): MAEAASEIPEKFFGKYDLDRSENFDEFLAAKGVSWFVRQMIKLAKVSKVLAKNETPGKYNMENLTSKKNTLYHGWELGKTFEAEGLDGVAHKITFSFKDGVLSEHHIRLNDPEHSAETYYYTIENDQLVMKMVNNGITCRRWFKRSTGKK

CCCCC/C=C\C/C=C\C/C=C\CCCCCCC(=O)O [DGLA, dihomo-γ-linolenic acid]
% occupancy among bound PUFAs (LBP-2): 1% | pKd (LBP-3): 4.96

CC/C=C\C/C=C\C/C=C\C/C=C\C/C=C\CCCC(=O)O [EPA, eicosapentaenoic acid]
% occupancy among bound PUFAs (LBP-2): 6% | pKd (LBP-3): 5.32
